Values quoted from earlier work, collected in US20110256058A1, “Novel Peptides and Uses Thereof” (UNIVERSITY OF SOUTHERN CALIFORNIA, priority 2007, published 2011).

System: α2 aI domain
Settings: literature; for conformational effect on α2 receptor: open conformation of α2 receptor

For “CARKKHDC [RKKH peptide of structural studies in the literature]”, the “conformational effect on α2 receptor” value is listed as “induce conformational change”.
In the case of “CTRKKHDC [RKKH peptide of structural studies in the literature]”, the “conformational effect on α2 receptor” value is listed as “induce conformational change”.
For CTRKKHDNAQC, the “binding to aI domain” value is given as “binds to aI domain” and the “inhibition of aI domain / α2β1 binding to collagen and laminin” value is given as “prevents its binding to collagen (type I, IV) and laminin (type 1)”.
In the case of RSECD, the “inhibition of aI domain / α2β1 binding to collagen and laminin” value is given as “fails to inhibit collagen binding”.
